Like-named read-outs stand apart in the source and are kept apart here.
Legend:
Manduca sexta larvae [1] = details: 10% wt./wt. of dry diet components
Protocol: The effect of feeding L-methionine to Manduca sexta larvae as they progressed from the first through fifth instar stages was determined. Colonies of hornworms are commonly reared for research by well-accepted techniques that account for environmental conditions such as feed availability, daily photoperiod, temperature, etc. The caterpillars were obtained from Carolina Biological Supply Co. and were placed in a lighted 27° C. incubator and fed hydrated reconstituted Dry Tobacco Hornworm Medium Stock No. L-908D (Carolina Biological Supply Co., Burlington, N.C.) supplemented with or without (control) L-methionine supplementation.
The effect of feeding L-methionine to Manduca sexta larvae as they progressed from the first through fifth instar stages was studied. In one study, the caterpillars were placed in a 27° C. incubator (photoperiod 16 hours light, 8 hours dark; relative humidity 60%) and fed a hydrated standard defined hornworm diet without (control) or with L-methionine supplementation (10% wt./wt. of dry components).

[2] = system: Manduca sexta neonate larvae; details: all test doses, sprayed excised eggplant leaves, water vehicle
Description: (§1) Another study evaluated the Manduca larvae mortality on excised leaves of host plant (eggplant; Solanum melongena) that were sprayed with various concentrations of L-methionine dissolved in deionized water. Manduca sexta neonate larvae were initially reared on eggplants in Plexiglas cylinders. Larvae (total N=64/treatment) were exposed to eggplant leaves that were sprayed (then dried) with aqueous solutions of methionine.

[3] = system: eggplant; Solanum melongena; details: in vivo
Description: as §1

Manduca sexta larvae [4] = details: Silwet-L77
Protocol: In one study, leaves of eggplant (Solanum melongena) were sprayed with a deionized water/Silwet-L77 solution containing varying concentrations of methionine, then allowed to dry. The Silwet-L77 was prepared according to the manufacture's instructions. Manduca sexta larvae (N=400; 80 per methionine dose) were then exposed to the eggplant leaves during 10 days, and surviving larvae were counted daily.

[5] = system: Leptinotarsa decemlineata larvae; details: whole eggplants sprayed, water vehicle
Description: Host growing whole eggplants in environmental growth chanmbers were sprayed with deionized water containing varying concentrations of methionine, then dried. Leptinotarsa decemlineata larvae (N=160 per group) were exposed to the leaves, and surviving larvae were counted daily.

[6] = system: Colorado potato beetle, Leptinotarsa decemlineata; details: field
Protocol: Eggplant (Solanum melongena) growing in an outside test field were treated with various concentrations of aqueous L-methionine solutions applied to the leaves, which were allowed to dry. Then larvae of Colorado potato beetle, Leptinotarsa decemlineata, were applied to the plants, and surviving larvae were counted daily.

[7] = system: eggplant (Solanum melongena); details: in vivo
Description: Host eggplant (Solanum melongena) growing in fields were sprayed with deionized water containing varying concentrations of methionine, then dried.

Aedes aegypti larvae = system: Aedes aegypti larvae
Description: Another experiment assessed the specificity of L-methionine compared to L-proline on Aedes aegypti survival. Mosquito larvae (third or fourth instar; N=240) were placed in water containing various concentrations of L-proline or L-methionine, and fed ad libitum with commercial dried fish food applied to the water.

CAATCH1 = CAATCH1 expressed in cell membranes; cited from earlier work

Row | Compound | larval development (Manduca sexta larvae [1]) | larvae killed (Manduca sexta larvae [1]; within 3 days) [%] | larvae dead [2] [%] | plant viability [3] | time to reach complete mortality (Manduca sexta larvae [4]; leaves treated with 0.31% methionine) [days] | time to reach complete mortality (Manduca sexta larvae [4]; leaves treated with 0.45% (w/w) methionine) [days] | methionine concentration at which complete mortality was attained [5] [%] | efficacy of lowest concentration attempted ([6]; 0.06% (w/w on leaves)) | larvae mortality versus concentration ([6]; various concentrations) | fruit yield mean numbers or mean weights [7] | larvae killed (Aedes aegypti larvae; 0.7% methionine in water, day 3) [%] | LD50 (Aedes aegypti larvae; day 2) [% methionine] | LD50 (Aedes aegypti larvae; day 3) [% methionine] | CAATCH1-associated voltage-dependent amino acid-elicited steady state inward cation currents (CAATCH1) | effect on larvae survival compared to 0% methionine control (Aedes aegypti larvae; all test days, P≧0.05)
1 | CSCC[C@H](N)C(=O)O [L-methionine] | prevented all the caterpillars from advancing in development | 100 | 100 | plant viability was not affected | 4 | 2 | ≤ 0.15 | efficacious | increased in a dose-dependent manner | not significantly different from control | 100 | ~0.5 | ~0.3 | blocked | 
2 | O=C(O)[C@@H]1CCCN1 [L-proline, reference compound] |  |  |  |  |  |  |  |  |  |  |  |  |  |  | no effect
